The subject of this assay is CETP. In words: Ex vivo CETP activity in plasma of hamsters (saline or Triton WR-1339 treated). Conditions: hamster; for Inhibition of CETP activity, lower dose group, Triton WR-1339 group / Inhibition of CETP activity, lower dose group, saline group: oral gavage: Torcetrapib 5 mg/kg, Anacetrapib 1.5 mg/kg, Example 49 1.5 mg/kg, Example 8 0.75 mg/kg; for Inhibition of CETP activity, lower dose group, Triton WR-1339 group / Inhibition of CETP activity, higher dose group, Triton WR-1339 group: Triton WR-1339 100 mg/kg i.v.; for Inhibition of CETP activity, lower dose group, Triton WR-1339 group: not significant vs vehicle; for Inhibition of CETP activity, lower dose group, saline group / Inhibition of CETP activity, higher dose group, saline group: saline i.v.; for Inhibition of CETP activity, higher dose group, Triton WR-1339 group / Inhibition of CETP activity, higher dose group, saline group: oral gavage: Torcetrapib 10 mg/kg, Anacetrapib 3 mg/kg, Example 49 3 mg/kg, Example 8 1.5 mg/kg. As to the method: Nine- to ten-week-old, male golden Syrian hamsters were purchased from Japan SLC Inc. (Shizuoka, Japan). Animals underwent a more than 1-week acclimation period under the following conditions: 8:00/20:00 light/dark cycle, room temperature 23±2° C. […] During this time, animals received filtered (0.5 μm) water and a standard chow diet ad libitum.
Whole blood samples were collected using a heparin-washed syringe (Heparin sodium injection “Ajinomoto”; Ajinomoto, Tokyo, Japan) from the abdominal vein by venipuncture under isoflurane (Abbott Japan Co. Ltd.) inhalant anesthesia. After centrifugation at 15,000 rpm for 10 min at 4° C., heparinized plasma was prepared and stored at −80° C. until use.
CETP activity (RFU/min) was defined as the change in fluorescence intensity from 30 to 90 min.
The effect of an acute increase of plasma triglycerides in vivo (acute increase in triglyceride-rich particles) on the ability of Torcetrapib to alter plasma CETP activity, triglyceride and total cholesterol levels was investigated. Torcetrapib at doses of 3, 10 or 30 mg/kg or vehicle was administered once by gavage to hamsters fed a standard chow diet.
Compound or vehicle was administered once by gavage to hamsters fed a standard chow diet.

In the case of `COc1cc(F)c(C(C)C)cc1-c1ccc(C(F)(F)F)cc1CN1C(=O)O[C@H](c2cc(C(F)(F)F)cc(C(F)(F)F)c2)[C@@H]1C` [Anacetrapib, reference compound], the “Inhibition of CETP activity, lower dose group, Triton WR-1339 group” value is 8%; the “Inhibition of CETP activity, lower dose group, saline group” value is given as 56%; the “Inhibition of CETP activity, higher dose group, Triton WR-1339 group” value amounted to 13%; the “Inhibition of CETP activity, higher dose group, saline group” value amounted to 78%.
With `CC[C@@H]1C[C@H](N(Cc2cc(C(F)(F)F)cc(C(F)(F)F)c2)c2ncc(-c3cnn(C)c3)cn2)C[C@H](CC)N1C(=O)O[C@H]1CC[C@H](C(=O)O)CC1` [Example 8], the “Inhibition of CETP activity, lower dose group, Triton WR-1339 group” value was 20%; the “Inhibition of CETP activity, lower dose group, saline group” value is 72%; the “Inhibition of CETP activity, higher dose group, Triton WR-1339 group” value is 47%; the “Inhibition of CETP activity, higher dose group, saline group” value is given as 79%.
